The text below walks through data of ChEMBL document CHEMBL1909046, “DrugMatrix in vitro pharmacology data”.

Assay [1] concerns the target T1, Type-2 angiotensin II receptor (Homo sapiens, UniProt P50052). Also: in other assays of this panel Not Active means under 50% inhibition at 10 µM.
T1 sequence (P50052 whole entry): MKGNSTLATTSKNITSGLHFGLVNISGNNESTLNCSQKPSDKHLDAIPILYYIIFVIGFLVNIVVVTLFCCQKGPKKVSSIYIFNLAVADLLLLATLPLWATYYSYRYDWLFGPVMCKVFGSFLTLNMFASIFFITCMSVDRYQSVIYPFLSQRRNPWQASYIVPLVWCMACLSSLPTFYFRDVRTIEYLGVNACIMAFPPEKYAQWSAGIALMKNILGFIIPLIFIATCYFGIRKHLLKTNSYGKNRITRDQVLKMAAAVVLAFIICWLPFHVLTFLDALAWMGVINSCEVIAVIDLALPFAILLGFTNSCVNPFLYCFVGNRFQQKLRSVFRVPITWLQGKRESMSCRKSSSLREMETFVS
The assay is classed as cell-based. The settings on record: cho-k1.

Assay [2] has as its target T2, C-C chemokine receptor type 4 (Homo sapiens, UniProt P51679). Also: in other assays of this panel Not Active means under 50% inhibition at 10 µM.
T2 sequence (P51679 whole entry): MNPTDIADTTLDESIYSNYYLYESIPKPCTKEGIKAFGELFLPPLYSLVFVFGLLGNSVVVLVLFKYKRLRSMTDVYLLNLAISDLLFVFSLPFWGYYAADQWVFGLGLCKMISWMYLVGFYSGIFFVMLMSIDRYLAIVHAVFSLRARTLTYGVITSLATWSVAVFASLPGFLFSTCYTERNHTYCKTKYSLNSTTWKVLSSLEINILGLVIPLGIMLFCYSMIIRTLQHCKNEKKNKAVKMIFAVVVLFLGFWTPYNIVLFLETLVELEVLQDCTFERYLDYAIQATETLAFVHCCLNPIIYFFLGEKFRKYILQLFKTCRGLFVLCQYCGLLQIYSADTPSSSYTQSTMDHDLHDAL
The assay is classed as cell membranes, Chem-1, Membrane. The settings on record: chem-1.

Assay [3] in a line: DRUGMATRIX: Interleukin IL-1 radioligand binding (ligand: [125I] interleukin 1beta). It counts as cell membranes, Membrane. The settings on record: nih3t3; Not Active = under 50% inhibition at 10 µM.
Assay [4] has as its target T3, Muscarinic acetylcholine receptor M5 (Homo sapiens, UniProt P08912). Also: in other assays of this panel Not Active means under 50% inhibition at 10 µM.
T3 sequence (P08912 whole entry): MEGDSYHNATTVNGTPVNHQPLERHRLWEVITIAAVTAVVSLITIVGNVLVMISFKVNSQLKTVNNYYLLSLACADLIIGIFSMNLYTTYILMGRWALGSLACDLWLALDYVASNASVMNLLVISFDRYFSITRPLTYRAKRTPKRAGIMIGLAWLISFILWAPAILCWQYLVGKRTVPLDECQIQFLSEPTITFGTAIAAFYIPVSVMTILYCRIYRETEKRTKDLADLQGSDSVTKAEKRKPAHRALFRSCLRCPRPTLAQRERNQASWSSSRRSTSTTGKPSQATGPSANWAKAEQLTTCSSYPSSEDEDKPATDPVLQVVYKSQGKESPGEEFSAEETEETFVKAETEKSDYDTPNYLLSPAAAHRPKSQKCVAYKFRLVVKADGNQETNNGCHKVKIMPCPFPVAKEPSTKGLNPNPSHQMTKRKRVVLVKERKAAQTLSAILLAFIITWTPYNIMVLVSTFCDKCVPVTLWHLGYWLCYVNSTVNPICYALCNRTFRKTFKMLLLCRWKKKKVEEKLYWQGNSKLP
It counts as cell membranes, CHO-K1, Membrane.

In assay [5] the target is T4, Nitric oxide synthase, inducible (Mus musculus, UniProt P29477).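 Also: inhibition of iNOS enzyme activity measured with L-arginine as substrate; in other assays of this panel Not Active means under 50% inhibition at 10 µM.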
T4 sequence (P29477 whole entry): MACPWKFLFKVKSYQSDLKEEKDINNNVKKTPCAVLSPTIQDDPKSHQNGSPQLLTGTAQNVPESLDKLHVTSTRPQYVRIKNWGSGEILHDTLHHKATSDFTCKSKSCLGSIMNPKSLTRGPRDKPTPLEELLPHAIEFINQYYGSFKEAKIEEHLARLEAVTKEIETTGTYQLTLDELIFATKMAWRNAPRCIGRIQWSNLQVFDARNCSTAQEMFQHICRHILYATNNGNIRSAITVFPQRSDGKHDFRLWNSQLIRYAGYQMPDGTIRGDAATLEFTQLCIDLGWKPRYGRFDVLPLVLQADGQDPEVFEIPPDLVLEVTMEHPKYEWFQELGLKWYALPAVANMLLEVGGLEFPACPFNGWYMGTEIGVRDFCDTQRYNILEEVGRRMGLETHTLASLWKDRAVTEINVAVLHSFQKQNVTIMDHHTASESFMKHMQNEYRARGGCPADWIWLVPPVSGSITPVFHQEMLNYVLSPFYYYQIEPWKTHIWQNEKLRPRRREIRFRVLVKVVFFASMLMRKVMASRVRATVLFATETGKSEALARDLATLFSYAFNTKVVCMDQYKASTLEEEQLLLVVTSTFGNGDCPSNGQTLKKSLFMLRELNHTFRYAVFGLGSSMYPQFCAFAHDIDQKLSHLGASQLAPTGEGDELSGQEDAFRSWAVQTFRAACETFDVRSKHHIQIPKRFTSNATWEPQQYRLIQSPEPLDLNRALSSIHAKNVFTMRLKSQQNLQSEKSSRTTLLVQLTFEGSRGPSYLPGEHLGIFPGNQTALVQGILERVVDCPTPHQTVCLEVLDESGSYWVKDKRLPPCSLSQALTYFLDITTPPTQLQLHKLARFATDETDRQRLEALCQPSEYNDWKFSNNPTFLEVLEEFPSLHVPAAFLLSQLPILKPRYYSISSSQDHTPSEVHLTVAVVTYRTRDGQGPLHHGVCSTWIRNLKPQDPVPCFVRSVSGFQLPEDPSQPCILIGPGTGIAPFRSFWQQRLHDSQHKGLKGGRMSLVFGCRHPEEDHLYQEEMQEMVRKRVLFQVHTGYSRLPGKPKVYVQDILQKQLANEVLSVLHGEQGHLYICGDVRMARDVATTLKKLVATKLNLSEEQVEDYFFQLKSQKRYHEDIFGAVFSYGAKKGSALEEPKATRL
Details: species or system Escherichia coli.

Assay [6] concerns the target Delta-type opioid receptor (Homo sapiens, UniProt P41143). It counts as cell membranes, HEK293, Membrane. The settings on record: hek293. Also: in other assays of this panel Not Active means under 50% inhibition at 10 µM.
In assay [7] the target is Tyrosine-protein kinase Fyn (Homo sapiens, UniProt P06241). In words: biochemical. The assay is classed as cell-based, Insect cells.
Chain of Tyrosine-protein kinase Fyn (P06241 whole entry): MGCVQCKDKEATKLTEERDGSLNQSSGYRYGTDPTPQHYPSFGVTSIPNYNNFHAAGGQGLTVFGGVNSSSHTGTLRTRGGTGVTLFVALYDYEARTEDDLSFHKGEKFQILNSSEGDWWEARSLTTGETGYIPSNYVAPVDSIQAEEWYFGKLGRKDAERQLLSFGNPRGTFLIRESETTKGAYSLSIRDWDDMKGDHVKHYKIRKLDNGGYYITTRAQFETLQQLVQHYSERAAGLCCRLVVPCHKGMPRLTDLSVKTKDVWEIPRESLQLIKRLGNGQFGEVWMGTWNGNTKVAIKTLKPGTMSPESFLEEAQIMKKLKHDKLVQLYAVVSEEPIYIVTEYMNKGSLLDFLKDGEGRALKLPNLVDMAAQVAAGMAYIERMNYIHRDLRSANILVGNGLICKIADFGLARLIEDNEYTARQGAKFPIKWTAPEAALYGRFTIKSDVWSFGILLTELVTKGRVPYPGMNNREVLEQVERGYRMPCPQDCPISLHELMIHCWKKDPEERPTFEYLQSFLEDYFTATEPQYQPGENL

Chain of Delta-type opioid receptor (P41143 whole entry): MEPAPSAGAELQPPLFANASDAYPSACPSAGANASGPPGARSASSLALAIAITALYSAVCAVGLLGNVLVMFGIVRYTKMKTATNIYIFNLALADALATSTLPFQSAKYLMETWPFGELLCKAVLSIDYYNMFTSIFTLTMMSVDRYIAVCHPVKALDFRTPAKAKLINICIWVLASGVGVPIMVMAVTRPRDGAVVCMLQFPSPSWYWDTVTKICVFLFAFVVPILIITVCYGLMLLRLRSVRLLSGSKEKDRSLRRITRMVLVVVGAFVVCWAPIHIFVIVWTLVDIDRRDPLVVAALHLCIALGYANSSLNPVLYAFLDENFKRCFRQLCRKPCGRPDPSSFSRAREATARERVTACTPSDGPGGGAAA

`Cc1cnc(NC(=O)C2=C(O)c3ccccc3S(=O)(=O)N2C)s1` [MELOXICAM]: the IC50 entry in assay [1], in assay [2], in assay [3], in assay [4] (cho-k1), in assay [5] and in assay [6] was “Not Active” throughout. Also, in assay [7] (insect cells), the IC50 result is “Not Active”. The inhibition constant Ki entry in assay [3] was “Not Active”.

For the compound `Nc1nc(N)c2nc(-c3ccccc3)c(N)nc2n1`, the IC50 result in assay [1], in assay [2], in assay [3], in assay [4] (cho-k1), in assay [5] and in assay [6] was “Not Active” throughout. The half-inhibitory concentration (IC50) result in assay [7] (insect cells) is listed as “Not Active”. Besides, the Ki entry in assay [3] is “Not Active”.

In the case of `CC(C)(C)NC[C@H](O)COc1cccc2c1CCCC2=O` [LEVOBUNOLOL], the IC50 result in assay [1], in assay [2], in assay [3], in assay [4] (cho-k1), in assay [5] and in assay [6] was “Not Active” each time. In assay [7] (insect cells), the IC50 entry is “Not Active”. For the same compound, the Ki entry in assay [3] is “Not Active”.

On to `Cc1[nH]c(=O)c(C#N)cc1-c1ccncc1` [MILRINONE], for which the IC50 result in assay [1], in assay [2], in assay [3], in assay [4] (cho-k1), in assay [5] and in assay [6] was “Not Active” throughout. In addition, the IC50 entry in assay [7] (insect cells) is listed as “Not Active”. The Ki entry in assay [3] is listed as “Not Active”.

For `Cc1cn([C@H]2C=C[C@@H](CO)O2)c(=O)[nH]c1=O` [STAVUDINE], the IC50 entry in assay [1], in assay [2], in assay [3], in assay [4] (cho-k1), in assay [5] and in assay [6] was “Not Active” each time. Moreover, in assay [7] (insect cells), the IC50 entry is “Not Active”. In addition, in assay [3], the Ki entry was “Not Active”.

For `CCOc1cc(N)c(Cl)cc1C(=O)NCC1CN(Cc2ccc(F)cc2)CCO1` (centres undefined) [MOSAPRIDE], the IC50 entry in assay [1], in assay [2], in assay [3], in assay [4] (cho-k1), in assay [5] and in assay [6] was “Not Active” throughout. Besides, the IC50 result in assay [7] (insect cells) is given as “Not Active”. Moreover, the Ki entry in assay [3] is recorded as “Not Active”.

With `C#C[C@]1(O)CC[C@H]2[C@@H]3[C@H](C)CC4=C(CCC(=O)C4)[C@H]3CC[C@@]21C` [TIBOLONE], the 50% inhibitory concentration (IC50) entry in assay [1], in assay [2], in assay [3], in assay [4] (cho-k1), in assay [5] and in assay [6] was “Not Active” throughout. The IC50 entry in assay [7] (insect cells) is given as “Not Active”. In addition, the Ki entry in assay [3] is on record as “Not Active”.

For `CC[C@H](C)[C@@H](CO[C@@H](Cc1ccccc1)C(=O)N[C@@H](CCS(C)(=O)=O)C(=O)OC(C)C)NC[C@@H](N)CS`, the IC50 entry in assay [1], in assay [2], in assay [3], in assay [4] (cho-k1), in assay [5] and in assay [6] was “Not Active” each time. For the same compound, the IC50 in assay [7] (read-out: IC50) worked out at 813 nM. Further, the Ki result in assay [3] is “Not Active”.

As for `OC[C@@H](O)[C@@H](O)[C@H](O)[C@H](O)CO` [MANNITOL], the IC50 result in assay [1], in assay [2], in assay [3], in assay [4] (cho-k1), in assay [5] and in assay [6] was “Not Active” throughout. The IC50 result in assay [7] (insect cells) was “Not Active”. In assay [3], the Ki entry is “Not Active”.

For `O=[As][O-].[Na+]` [SODIUM ARSENITE], the IC50 entry in assay [1], in assay [2], in assay [3], in assay [4] (cho-k1), in assay [5] and in assay [6] was “Not Active” in each case. Also, the IC50 result in assay [7] (insect cells) is “Not Active”. Further, the inhibition constant Ki entry in assay [3] is recorded as “Not Active”.

Take `Cc1cc2c(s1)Nc1ccccc1N=C2N1CCN(C)CC1` [OLANZAPINE]: the IC50 entry in assay [1], in assay [2], in assay [5], in assay [6] and in assay [7] (insect cells) was “Not Active” throughout.

In the case of `Cc1ccc(Cl)c(Nc2ccccc2C(=O)O)c1Cl` [MECLOFENAMIC ACID], the IC50 entry in assay [1], in assay [2], in assay [3], in assay [4] (cho-k1), in assay [5] and in assay [6] was “Not Active” each time. Also, the IC50 result in assay [7] (insect cells) is “Not Active”. Further, in assay [3], the Ki entry is listed as “Not Active”.

On to `CNCCCC12CCC(c3ccccc31)c1ccccc12` [MAPROTILINE], for which the IC50 entry was “Not Active” in assay [1]; “Not Active” in assay [2]; 160 nM in assay [4] (read-out: IC50); “Not Active” in assay [5]; “Not Active” in assay [6]; “Not Active” in assay [7] (insect cells). Besides, the Ki in assay [4] (read-out: Ki) turned out to be 115 nM.

As to `O=C1CC[C@@]2(O)[C@H]3Cc4ccc(O)c5c4[C@@]2(CCN3CC2CC2)[C@H]1O5` [NALTREXONE], the IC50 result in assay [1], in assay [2], in assay [3], in assay [4] (cho-k1), in assay [5] and in assay [7] (insect cells) was “Not Active” throughout. Besides, the Ki entry in assay [3] is listed as “Not Active”.

As to `C[N+]1(C)[C@@H]2C[C@@H](OC(=O)[C@H](CO)c3ccccc3)C[C@H]1[C@@H]1O[C@@H]12.[Br-]` [METHSCOPOLAMINE BROMIDE], the IC50 result in assay [1], in assay [2], in assay [3], in assay [5], in assay [6] and in assay [7] (insect cells) was “Not Active” in each case. Also, the Ki entry in assay [3] is listed as “Not Active”.

For `CN(C)CCC=C1c2ccccc2COc2ccccc21` [DOXEPIN], the IC50 entry in assay [1], in assay [2], in assay [5], in assay [6] and in assay [7] (insect cells) was “Not Active” throughout.
